We go through 7 compounds from patent US20190382445A1, “PEPTIDE HAVING MELANOGENESIS-INHIBITING ACTIVITY AND COMPOSITION COMPRISING SAME” (RUBY CROWN CO. LTD., priority 2016, published 2019).

Ends that are not written are not given here.

In data set [1] the test system is human epidermal melanocytes (HEM). The experiment in a line: Cell viability by MTT assay, HEM. The class given is cell-based. To be noted: up to 300 μM, 24 hours (tested up to 1 mM). The protocol: (§1) Cell viability was determined by 3-(4,5-dimethylthiazol-2-yl)-2,5-diphenyltetrazolium bromide (MTT) assay. B16-F10 cell line and HEM were treated with test peptides at different concentrations for 24 hours. After washing with PBS, the cells were in a culture medium 100 including 1 mg/mL MTT (Amresco, Solon, Ohio, USA) added thereto for 3 hours. After removing the culture medium, formazan accumulated in the cells was […] using isopropanol and subjected to determination of absorbance at 595 nm using a SPECTROstar Nano microplate reader (BMG LABTECH GmbH, Ortenberg, Germany).
(§2) Cell viability was determined by treating the cells with B6 at different concentrations of up to 1 mM for 24 hours (A in FIG. 5). […] Further, effects on melanin content in the cells were examined by pre-treatment of the cells with B6 peptide at different concentrations of up to 300 μM, and then, stimulating the same with α-MSH at 100 nM or tyrosine at 4 mM for […] (B, C in FIG. 5). As a positive control group for melanogenesis inhibition, arbutin was used.
On the technique in general: Tetrazolium dyes change colour on reduction, which living cells bring about.

Data set [2] relates to B16-F10 cells. The experiment in a line: Cell viability by MTT assay, B16-F10. As to conditions: up to 300 μM, 24 hours (tested up to 1 mM). The data set is classed as cell-based, murine. How it is done:
as §1
Cell viability was determined by treating the cells with B6 at different concentrations up to 1 mM for 24 hours (A in FIG. 4). […] Further, effects on melanin content in the cells were examined by pre-treatment of the cells with B6 peptide at different concentrations of up to 300 μM, and then, stimulating the same with α-MSH at 100 nM for 72 hours (B in FIG. 4).

In data set [3] the test system is B16-F10 cells. As to the kind of experiment: Melanin content in α-MSH-stimulated B16-F10 cells (absorbance at 475 nm). As to conditions: for melanin inhibitory effect of short peptides compared to B6 peptide: concentrations of 100 μM to 10 μM. The class given is cell-based, murine. The protocol:
FIG. 2 is an experimental result showing the effect of each hexapeptide on cellular melanin biosynthesis. FIG. 2A represents a peptide wherein the type of amino acids fixed at 3 positions in the amino acid sequence of the amino acids, while the type of amino acids is altered at the other 3 positions. FIG. 2B represents a peptide wherein the amino acid sequence was defined. The cell-based assay in FIG. 2 is conducted by treating B16-F10 cells with a vehicle or peptide at a predetermined concentration, stimulating the same with α-MSH at 100 nM, and measuring absorbance at 475 nm after 72 hours to determine melanin content. Data are expressed in percent (%) as mean ± standard error (mean±SE, n=3) compared to the vehicle control group. In the figures, # means p<0.05 compared to the control group and * means p<0.05 compared to cells stimulated only with α-MSH. The amino acid sequences described in FIG. 2 are all represented in the direction from the amino terminal to the carboxy terminal. An amino functional group (—NH2) shown in the peptide terminal is one added by carboxy terminal amidation used in peptide synthesis.
The cell-based Assay in FIG. 3 is conducted by treating B16-F10 cells with a vehicle or peptide at a predetermined concentration, stimulating the same with 100 nMα-[…], and measuring the absorbance at 475 nm after 72 hours to determine the melanin content. Data are expressed in percent (%) as mean±standard, error (mean±SE, n=3) compared to the vehicle control group. In the figures, # means p<0.05 compared to the control group and * means p<0.05 compared to cells stimulated only with α-MSH. The amino acid sequences described in FIG. 2 are all represented in the direction from the amino terminal to the carboxy terminal. An acetyl group (Ac—) shown in the peptide amino terminal or an amino functional group (—NH2) shown in the carboxy terminal is one added by chemical synthesis of peptide.
(§3) Melanogenesis-inhibitory effects of the analyte (the peptides) was confirmed using the B16-F10 cell line and HEM. B16-F10 cells were treated with a test peptide at different concentrations for 60 minutes and stimulated using a 100 nM α-MSH for 72 hours. While HEM was also treated with the test peptide at different concentrations for 60 minutes and cultured with 100 nM α-MSH or 4.0 mM L-tyrosine while replacing the culture medium every 48 hours for 6 days. Using the culture medium used for culturing cells (conditioned medium), extracellular melanin level was measured. On the other hand, intercellular melanin was extracted with 0.1M NaOH at 60° C. for 60 minutes. A melanin content was determined by measuring an absorbance at 475 nm according to a spectroscopic method. The resultant values were subjected to normalization with respect to the total protein content of the cell.

Data set [4] has as its system human epidermal melanocytes (HEM). The experiment in a line: Melanin content in HEM stimulated with α-MSH or L-tyrosine. The class given is cell-based.
Excerpt: FIG. 5 is an experimental result showing effects of peptide B6 on cell viability of human epidermal melanocytes (HEM), melanin content and human tyrosinase (TYR) enzymatic activity. […] The intracellular and extracellular melanin contents were normalized with respect to the total protein content. […] Data are expressed in percent (%) as mean±standard error (mean±SE, n=3) compared to the vehicle control group. In the figures, #represents p<0.05 compared to the control group and * represents p<0.05 compared to cells stimulated only with tyrosine.
as §3, §2

On to “FSHHLG-NH2 [B6, Phe-Ser-His-His-Leu-Gly]”, for which the cell viability result (in data set [1]; in the data set on B16-F10 cells [2]) was “did not affect the viability” in each case.
As to Ser-His-His-Leu-Gly (SHHLG; C3 peptide), in the data set on B16-F10 cells [3] (100 μM, 100 nM α-MSH, 72 hours), the “melanogenesis inhibitory effect of short peptide” value was “excellent in melanogenesis inhibitory effect”.
Take “Ac-Ser-Tyr-Ser-Met-Glu-His-Phe-Arg-Trp-Gly-Lys-Pro-Val-NH2 (Ac-SYSMEHFRWGKPV-NH2) [α-MSH, agent of melanocortin 1 receptor used to stimulate melanogenesis, reference compound]”: in the data set with B16-F10 cells [3] (α-MSH alone, B16-F10 cells), the “melanin content, effect of stimulus” value was “increased melanin content”. For the same compound, the “melanogenesis, effect of stimulus α-MSH” value in data set [4] (α-MSH at 100 nM, HEM) is recorded as “did not show significant effect on melanogenesis”.
In the case of FSHHLG [C1], in the data set on B16-F10 cells [3] (100 nM α-MSH, 72 hours), the “melanin inhibitory effect of short peptides compared to B6 peptide” value is “melanin inhibitory effect similar to B6 peptide”.
For the compound `OC[C@H]1O[C@@H](Oc2ccc(O)cc2)[C@H](O)[C@@H](O)[C@@H]1O` [arbutin], in data set [4] (HEM stimulated with 4 mM L-tyrosine, peptide up to 300 μM), the “inhibition of increase in melanin content by L-tyrosine” value is recorded as “effectively inhibited”.
In the case of `N[C@@H](Cc1ccc(O)cc1)C(=O)O` [L-tyrosine], the “extracellular and intracellular melanin contents, effect of stimulus L-tyrosine” value in data set [4] (tyrosine at 4 mM, HEM) is “increased extracellular and intracellular melanin contents”.
As to Phe-Ser-His-His-Leu (FSHHL; C2 peptide), the “melanin inhibitory effect of short peptides compared to B6 peptide” value in the data set with B16-F10 cells [3] (100 nM α-MSH, 72 hours) was “did not substantially inhibit melanogenesis”.
